Tested on: TNF, IFNγ, and granzyme B
Experiment: Cytokine levels in supernatants of dissociated human tumor cell cultures with ATP
Type: cell-based
Details: 500 μM ATP; Compound 1 300 nM; culture supernatants
Protocol: Human tumors were dissociated, and cells were CFSE-labelled and stimulated with CD3/CD28 microbeads and IL-2 in the presence of 500 μM of ATP as a source of adenosine.
Human tumor pieces were rinsed with cold PBS and cut into 1 to 2 mm fragments with a scalpel blade and transferred into GentleMACS C tubes. Dissociation of the tissue was completed with the Tumor Dissociation kit (Miltenyi Biotec) according to the manufacturer's instruction. Briefly, 5 mL of dissociation solution—containing 200 μL of enzyme H, 20 μL of enzyme R and 25 μL of enzyme A and RPMI until 5 mL—was added per gram of tumor. The tube was placed in the gentleMACS dissociator and the 1st program was run. An incubation step of 30 minutes at 37° C. was applied with rotation (MACSmix tube rotator). After this incubation, a quick centrifugation (30×rcf, 1 min) was performed, the supernatant containing dissociated cells was collected in a new tube containing FBS (30% of the total volume with supernatant) and placed at 4° C. […] A short centrifugation was performed, the cells in supernatant were pooled with the 1st collection and filtered through a 100 μm cell strainer which was washed with 10 mL RPMI 10% FBS 2% P/S. After centrifugation at 350×rcf for 10 min, cells were resuspended in 20 mL RPMI 10% FBS 2% P/S and counted with a haemocytometer. […]

COc1cc(C(=O)O[C@@H]2CCCOc3cc(cc(OC)c3OC)C(=O)NCCCN3CCCN(CC2)CC3)cc(OC)c1OC [Compound 1, (12R)-7^4,7^5-dimethoxy-6-oxo-8-oxa-5-aza-1(1,4)-diazepana-7(1,3)-benzenacyclotetradecaphane-12-yl 3,4,5-trimethoxybenzoate]
Production of TNF, IFNγ, and granzyme B suppressed by ATP: restored, to varying extents

— patent US20260284074A1, “ENT1 Inhibitors in Combination with Checkpoint Inhibitors” (iTeos Belgium SA, priority 2023, published 2026)
